From patent US12454704B2, “Efficient gene delivery tool with a wide therapeutic margin” (priority 2019, dated 2025)

Columns and labels:
Neuro2a cells [1] = assay: Cell confluency as a measure of cell viability, determined optically (Cytosmart); type: cell-based, murine; conditions: saponin 24 μg/mL applied 24 h after seeding
Experimental: Murine neuroblastoma cells (Neuro2a cells, ATTC CCL-131™) were cultured in Dulbecco's Modified Eagle's Medium (DMEM), containing 1 g/L D-Glucose, 10% FBS and stable glutamine, at 37° C. and 5% CO2. These cells were then incubated with different saponins to test the cytotoxic effect of the saponins.
The cell confluency as a measure of cell viability was determined optically via cell number calculating algorithms (Cytosmart). The results are depicted in FIGS. 1A to 1D.
Buffer was used in each case as negative control.

Neuro2a cells [2] = assay: Cell viability test via impedance measurement (iCELLigence); type: cell-based, murine
Experimental: The impedance (alternating current resistance) at the well bottom as real-time cell viability measure of adherent cells was determined by the iCELLigence® device. 8000 Neuro2a cells per well were seeded into two 8-well E-plates L8 and incubated for 24 h in a volume of 800 μL. For transfection toxicity studies 50 μL of reagent was added after the respective volume of culture medium was removed. Each 10 minutes the impedance/viability was measured.
The curves indicated in FIG. 2 represent the results of the following measurements: […]

Neuro2a cells [3] = assay: Cell viability test by MTT assay; type: cell-based, murine; conditions: same concentration for all saponins (FIG. 3)
Description: The determination of mitochondrial activity due to the formation of formazan out of MTT served as biochemical method to measure cell viability.

Neuro2a cells [4] = assay: Sapofection: transfection efficiency of GFP-encoding PD nanoplexes by flow cytometry; type: cell-based, murine
Experimental: The PD nanoplexes comprised DNA encoding for the green fluorescent protein (GFP). Therewith, the transfection efficiency could very easily be monitored by detecting the fluorescence of the cells that have been incubated with the corresponding DNA nanoparticles. The corresponding incubation period was chosen to be 48 hours in the present case.
20 mg of positively charged poly-lysine peptides without an integrin-receptor-targeting amino sequence were purchased from Genecust. The vector of p-EGFP-N3, coding for the green fluorescing protein (GFP), was obtained and propagated with DH5α— E. coli cells (1.645 mg/mL). StemMACS™ eGFP mRNA (20 μg) and GFP encoding minicircle DNA (Gene Bank Accession: U55761) were used as further nucleic acids. In order to conduct the transfection, nanoplexes were formulated as follows: The poly-lysine peptides (P) and the p-EGFP-N3 vector (D), were diluted in water (each 50 μL) and mixed thoroughly by fast pipetting in a ratio of 4:1. The nanoplexes were allowed to form in a 30-minute incubation step. Thereafter, the nanoplex suspension was diluted with OptiMEM to a total volume of 1 mL. The commercial transfection reagent Lipofectamin®3000 was formulated as described by the manufacturer.
Neuro2a cells (15,000 cells/well) were seeded in a 24-well-plate with a well volume of 400 μL culture medium and incubated for 24 h. The transfection reagents were formulated as described above and admixed with saponin solution, if required. The culture medium was replaced with the transfection medium with a final amount of 500 ng DNA/RNA. After a 48 h incubation period, the transfection medium was removed, the cells were trypsinized and transferred in a polystyrene tube for flow cytometry (Cytoflex). For each measurement 10,000 cells were acquired. The transfection efficiency was determined by the analysis software Cyflogic (by comparison of the sample plots with the negative control in terms of fluorescence).

Neuro2a cells [5] = type: cell-based, murine; conditions: saponin alone, 4 μg/mL
Description: FIGS. 6A and 6B show cell viability tests upon AG1856-mediated delivery of GFP-minicircle-DNA- or RIP-minicircle-DNA-bearing nanoplexes.
Saporin and dianthin are cytotoxic proteins. If the transfection is successful, the transfected cells will die.
The curves depicted in FIG. 6A represent the results of the following measurements: […]

female NMRI nu/nu mice = assay: Chronic toxicity (tolerability) study of nanoplasmids (NP) plus AG1856 in vivo; conditions: 90 μg per mouse
Experimental: This study was performed to evaluate the tolerability of combined treatment of nanoplasmids (NP) and AG1856 in Naval Medical Research Institute (NMRI) nu/nu mice.
For the study, female NMRI nu/nu mice were used. Animals were treated with NP+AG1856 at doses of 50 and 90 μg/mouse respectively and after animal recovery in a second round at same doses.

Neuro2a cells [6] = type: cell-based, murine; conditions: 5 μg/mL
Description: To evaluate an enhancement of the transfection efficiency through AG1856 an optical based cytotoxicity assay after transfection with ribosome inactivating proteins (RIPs) was chosen.
As transgenes, 6-His-Agrostin RNA3 (Weise et al. 2020) and 6-His-Saporin 3 (Fabbrini et al. 1997) were cloned via BamHI and XbaI (Agrostin) and via SalI and NheI cleavage into pMC.CMV-MCS-SV40polyA (BioCat GmbH, Heidelberg, Germany) to produce minicircle with ZYCY10P3S2T (Kay et al. 2010). In addition to this, Saporin 3 and Gypsophillin S (Kokorin et al. 2019) were cloned into NTC9385R-BGHpA-Nanoplasmids and synthesized by Nature Technology Corporation (Lincoln, NB, USA) as previously described (Luke et al. 2011).
For 3 wells (96-Well-Plate), 300 ng plasmid DNA were diluted in 25 μL water and mixed with 25 μL of a solution with 2,100 ng Peptide Y (K16GACYGLPHKFCG) (GeneCust, Dudelage, Luxembourg). After an incubation period of 30 min, the nanoplexes were formed automatically. […]
The cytotoxic effect of the different constructs on the cells was measured by a CytoSMART® Omni, a camera-based system which took a photo of the bottom of each well every hour. The CytoSMART® Omni software calculated the confluence which is formed by living cells which are attached to the bottom. So, the cell growth could be monitored for 72 h. […]

SMILES | toxic effect (cell confluency as a measure of cell viability) (Neuro2a cells [1]) | toxicity (impedance, real-time cell viability) (Neuro2a cells [2]; stepwise increase of AG1856 concentration, 2 to 24 μg/mL) | toxicity-mediated drop of viability (MTT) (Neuro2a cells [3]) | transfection efficiency (Neuro2a cells [4]; GFP-plasmid nanoplexes, saponin increased from working concentration to 24 μg/mL (FIG. 5)) | transfection efficiency (Neuro2a cells [4]; PD nanoplexes (GFP DNA), saponin 2 μg/mL, 48 h incubation, versus Lipofectamin3000) | transfection efficiency (Neuro2a cells [4]; PD nanoplexes (GFP DNA), saponin 4 μg/mL or higher, 48 h incubation, versus Lipofectamin3000) | fluorescing cells (flow cytometric analysis) (Neuro2a cells [4]; transfection with GFP minicircle DNA performed with AG1856, n>3 (FIG. 6B)) | toxicity (cell viability) (Neuro2a cells [5]) | tolerance compared to other saponins (female NMRI nu/nu mice) | proliferation worse than the negative group (normalized confluence) (Neuro2a cells [6]; AG1856 only) | toxicity (impedance, real-time cell viability) (Neuro2a cells [2]; positive control, 4 μg/mL) | growth of the cells (normalized confluence) (Neuro2a cells [6]; positive control)
CC(=O)OCC1OC(OC2C(O)C(OC3C(OC(=O)C45CCC(C)(C)CC4C4=CCC6C7(C)CCC(OC8OC(C(=O)O)C(O)C(OC9OCC(O)C(O)C9O)C8OC8OC(CO)C(O)C(O)C8O)C(C)(C=O)C7CCC6(C)C4(C)CC5O)OC(C)C(OC4OC(C)C(OC(C)=O)C(OC(C)=O)C4O)C3O)OC(C)C2OC2OCC(O)C(O)C2O)C(O)C(O)C1OC(C)=O (stereo not drawn) [AG1856] | No distinct toxic effect | no significant toxicity increase | could not be observed | even increased efficiency | comparable to that of the gold standard Lipofectamin | even higher than that of Lipofectamin | Four cells out of five | no toxicity | superior tolerance | 12% |  | 
COc1ccc(C[C@H](N)C(=O)N[C@H]2[C@@H](O)[C@H](n3cnc4c(N(C)C)ncnc43)O[C@@H]2CO)cc1 [puromycin, reference compound] |  |  |  |  |  |  |  |  |  |  | toxic | inhibit the growth of the cells instantly
